Laboratory results published in patent US20230167088A1, “1-PYRAZINYLPYRAZOLYL-3-OXYALKYL ACIDS AND THEIR DERIVATIVES, AND THEIR USE FOR CONTROL OF UNDESIRED PLANT GROWTH” (BAYER AKTIENGESELLSCHAFT, priority 2020, published 2023).

Legend:
ALOMY = experiment: Herbicidal post-emergence action 1a (greenhouse pots, visual rating); assay type: in vivo, Alopecurus myosuroides; conditions: rated visually about 3 weeks after treatment, 100% = plants have died, 0% = like control plants
Method in brief: (§1)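 Weeds and crops sown in sandy loam in greenhouse pots were sprayed post-emergence at the one-leaf stage (2–3 weeks after sowing) with WP or EC formulations plus 0.5% additive at 600 l/ha water, 320 and/or 80 g/ha. About 3 weeks later damage was rated visually against untreated controls (0% = no effect, 100% = dead).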

SETVI [1] = experiment: as above; assay type: in vivo, Setaria viridis; conditions: rated visually about 3 weeks after treatment, 100% = plants have died, 0% = like control plants
Method in brief: as §1

ABUTH = experiment: as above; assay type: in vivo, Abutilon theophrasti; conditions: visual rating about 3 weeks after treatment
Method in brief: as §1

PHBPU = experiment: as above; assay type: in vivo, Pharbitis purpurea; conditions: visual rating about 3 weeks after treatment
Method in brief: as §1

DIGSA = experiment: Herbicidal pre-emergence action 2a (greenhouse pots, visual scoring); assay type: in vivo, Digitaria sanguinalis; conditions: dosage 320 g/ha, visual scoring after about 3 weeks
Method in brief: (§2)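 Pots of covered seed were sprayed pre-emergence at 320 and/or 80 g/ha. Roughly three weeks of greenhouse growth preceded visual scoring in percent versus untreated controls.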

SETVI [2] = experiment: as above; assay type: in vivo, Setaria viridis; conditions: dosage 320 g/ha, visual scoring after about 3 weeks vs untreated controls
Method in brief: as §2

MATIN = experiment: as above; assay type: in vivo, Matricaria inodora; conditions: dosage 320 g/ha, visual scoring after about 3 weeks vs untreated controls
Method in brief: as §2

VIOTR = experiment: as above; assay type: in vivo, Viola tricolor; conditions: dosage 320 g/ha, visual scoring after about 3 weeks vs untreated controls
Method in brief: as §2

VERPE = experiment: as above; assay type: in vivo, Veronica persica; conditions: dosage 320 g/ha, visual scoring after about 3 weeks vs untreated controls
Method in brief: as §2

POAAN = experiment: Herbicidal pre-emergence action 2b (doubly sown, 1280 g/ha); assay type: in vivo, Poa annua; conditions: doubly sown pots, dosage 1280 g/ha, visual scoring after about 3 weeks
Method in brief: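 Read-out: visual percentage damage relative to untreated controls, scored after roughly 3 weeks in the greenhouse, where 100% means plants died and 0% equals control. Seeds were sown two species per pot in sandy loam and covered before the compounds, formulated as WP or EC with 0.5% additive, were sprayed onto the soil at 600 L/ha.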

harmful plants = experiment: Herbicidal pre-emergence action 2a, summary across species; assay type: in vivo; conditions: Tables B1 to B15 (320 g/ha and/or 80 g/ha)
From the text: a) Seeds of monocotyledonous and dicotyledonous weed plants and crop plants are placed in plastic or organic plant pots and covered with soil. The compounds of the invention, formulated in the form of wettable powders (WP) or as emulsion concentrates (EC), are then applied onto the surface of the covering soil as aqueous suspension or emulsion with addition of 0.5% additive at a water application rate of 600 1/ha (converted). After the treatment, the pots are placed in a greenhouse and kept under good growth conditions for the trial plants. After about 3 weeks, the effect of the preparations is scored visually in comparison with untreated controls as percentages. For example, 100% activity=the plants have died, 0% activity=like control plants.
Tables B1 to B15 below show the effects of selected compounds of the general formula (I) according to Tables 1 and 2 on various harmful plants and an application rate corresponding to 320 g/ha and/or 80 g/ha, which were obtained by the experimental procedure mentioned above.
For example, compound nos. I-07, I-08, I-11, I-12, I-13, I-16, I-17, I-20, I-36, I-37, I-39, I-45, I-46, I-48, I-52 and I-53 in the pre-emergence method have very good action (80% to 100% herbicidal activity) against harmful plants such as Alopecurus myosuroides, Amaranthus retroflexus, Digitaria sanguinalis, Lolium rigidum, Polygonum convolvulus, Setaria viridis, Veronica persica and Viola tricolor at an application rate of 0.32 kg of active substance per hectare.

AVEFA [3] = experiment: Herbicidal post-emergence action 1a (greenhouse pots, visual rating); assay type: in vivo, Avena fatua; conditions: rated visually about 3 weeks after treatment, 100% = plants have died, 0% = like control plants
Method in brief: as §1

AVEFA [4] = experiment: Herbicidal pre-emergence action 2a (greenhouse pots, visual scoring); assay type: in vivo, Avena fatua; conditions: dosage 320 g/ha, visual scoring after about 3 weeks
Method in brief: as §2

With `COC(=O)COc1nn(-c2cnccn2)c(-c2ccc(F)nc2)c1Br` [Example I-11] the “Post-emergence action against ALOMY in %” value (ALOMY; Dosage 320 g/ha) was 100%, the “Post-emergence action against SETVI in %” value (SETVI [1]; Dosage 320 g/ha) was 90% and the “Post-emergence action against ABUTH in %” value (ABUTH; dosage 320 g/ha) was 80%. The “Post-emergence action against PHBPU in %” value (PHBPU; dosage 80 g/ha) was 80%, the “Post-emergence action against PHBPU in %” value (PHBPU; dosage 320 g/ha) was 80% and the “Pre-emergence action against DIGSA in %” value (DIGSA) was 100%. The “Pre-emergence action against SETVI in %” value (SETVI [2]) was 100%, the “Pre-emergence action against MATIN in %” value (MATIN) was 90% and the “Pre-emergence action against VIOTR in %” value (VIOTR) was 100%. For the same compound, the “Pre-emergence action against VERPE in %” value (VERPE) was 90%, the “Pre-emergence action at 1280 g/ha against POAAN in %” value (POAAN) was 100% and the “herbicidal efficacy against harmful plants in the case of pre-emergence treatment (in words)” value (“herbicidal efficacy” below) (harmful plants) was “good herbicidal efficacy”.
For `COC(=O)[C@@H](C)Oc1nn(-c2cnccn2)c(-c2ccnc(F)c2)c1Br` [Example I-34], the “Post-emergence action against ALOMY in %” value (ALOMY; Dosage 80 g/ha) was 80%, the “Post-emergence action against ALOMY in %” value (ALOMY; Dosage 320 g/ha) was 100% and the “Post-emergence action against AVEFA in %” value (AVEFA [3]; Dosage 320 g/ha) was 90%. The “Post-emergence action against SETVI in %” value (SETVI [1]; Dosage 80 g/ha) was 80%, the “Post-emergence action against SETVI in %” value (SETVI [1]; Dosage 320 g/ha) was 90% and the “Post-emergence action against PHBPU in %” value (PHBPU; dosage 320 g/ha) was 80%. For the same compound, the “Pre-emergence action against AVEFA in %” value (AVEFA [4]) was 90%, the “Pre-emergence action against DIGSA in %” value (DIGSA) was 100% and the “Pre-emergence action against SETVI in %” value (SETVI [2]) was 100%. The “Pre-emergence action against VIOTR in %” value (VIOTR) was 100%, the “Pre-emergence action at 1280 g/ha against POAAN in %” value (POAAN) was 100% and the “herbicidal efficacy” value (harmful plants) was “good herbicidal efficacy”.
`COC(=O)[C@@H](C)Oc1nn(-c2cnccn2)c(-c2cncc(F)c2)c1C#N` [Example I-40] was tested, and the “Post-emergence action against ALOMY in %” value (ALOMY; Dosage 80 g/ha) was 80%, the “Post-emergence action against ALOMY in %” value (ALOMY; Dosage 320 g/ha) was 90% and the “Post-emergence action against AVEFA in %” value (AVEFA [3]; Dosage 320 g/ha) was 80%. For the same compound, the “Post-emergence action against SETVI in %” value (SETVI [1]; Dosage 320 g/ha) was 90%, the “Post-emergence action against ABUTH in %” value (ABUTH; dosage 80 g/ha) was 80% and the “Post-emergence action against ABUTH in %” value (ABUTH; dosage 320 g/ha) was 80%. For the same compound, the “Post-emergence action against PHBPU in %” value (PHBPU; dosage 320 g/ha) was 90%, the “Pre-emergence action against DIGSA in %” value (DIGSA) was 100% and the “Pre-emergence action against SETVI in %” value (SETVI [2]) was 100%. The “Pre-emergence action against VIOTR in %” value (VIOTR) was 90% and the “Pre-emergence action at 1280 g/ha against POAAN in %” value (POAAN) was 100%.
For `COC(=O)[C@@H](C)Oc1nn(-c2cnccn2)c(-c2ccc(F)c(F)c2)c1C#N` [Example I-46], the “Post-emergence action against ALOMY in %” value (ALOMY; Dosage 80 g/ha) was 90%, the “Post-emergence action against ALOMY in %” value (ALOMY; Dosage 320 g/ha) was 90% and the “Post-emergence action against AVEFA in %” value (AVEFA [3]; Dosage 80 g/ha) was 80%. For the same compound, the “Post-emergence action against AVEFA in %” value (AVEFA [3]; Dosage 320 g/ha) was 80%, the “Pre-emergence action against AVEFA in %” value (AVEFA [4]) was 90% and the “Pre-emergence action against DIGSA in %” value (DIGSA) was 100%. The “Pre-emergence action against SETVI in %” value (SETVI [2]) was 100%, the “Pre-emergence action against MATIN in %” value (MATIN) was 100% and the “Pre-emergence action against VIOTR in %” value (VIOTR) was 100%. For the same compound, the “Pre-emergence action against VERPE in %” value (VERPE) was 100%, the “Pre-emergence action at 1280 g/ha against POAAN in %” value (POAAN) was 100% and the “herbicidal efficacy” value (harmful plants) was “good herbicidal efficacy”.
In the case of `C[C@@H](Oc1nn(-c2cnccn2)c(-c2cccc(F)c2)c1Br)C(=O)O` [Example I-48], the “Post-emergence action against ALOMY in %” value (ALOMY; Dosage 80 g/ha) is reported as 90%, the “Post-emergence action against AVEFA in %” value (AVEFA [3]; Dosage 80 g/ha) is reported as 80% and the “Post-emergence action against SETVI in %” value (SETVI [1]; Dosage 80 g/ha) is reported as 80%. For the same compound, the “Pre-emergence action against AVEFA in %” value (AVEFA [4]) was 90%, the “Pre-emergence action against DIGSA in %” value (DIGSA) was 100% and the “Pre-emergence action against SETVI in %” value (SETVI [2]) was 100%. For the same compound, the “Pre-emergence action against MATIN in %” value (MATIN) was 100%, the “Pre-emergence action against VIOTR in %” value (VIOTR) was 100% and the “Pre-emergence action against VERPE in %” value (VERPE) was 100%. The “Pre-emergence action at 1280 g/ha against POAAN in %” value (POAAN) was 100% and the “herbicidal efficacy” value (harmful plants) was “good herbicidal efficacy”.
In the case of `CCOC(=O)COc1nn(-c2cnccn2)c(-c2ccc(F)nc2)c1Br` [Example I-52, ethyl {[4-bromo-5-(6-fluoropyridin-3-yl)-1-(pyrazin-2-yl)-1H-pyrazol-3-yl]oxy}acetate], the “Post-emergence action against ALOMY in %” value (ALOMY; Dosage 80 g/ha) is reported as 80%, the “Post-emergence action against ALOMY in %” value (ALOMY; Dosage 320 g/ha) is reported as 90% and the “Post-emergence action against ABUTH in %” value (ABUTH; dosage 320 g/ha) is reported as 80%. For the same compound, the “Post-emergence action against PHBPU in %” value (PHBPU; dosage 80 g/ha) was 80%, the “Pre-emergence action against DIGSA in %” value (DIGSA) was 100% and the “Pre-emergence action against SETVI in %” value (SETVI [2]) was 90%. For the same compound, the “Pre-emergence action against MATIN in %” value (MATIN) was 90%, the “Pre-emergence action against VIOTR in %” value (VIOTR) was 90% and the “Pre-emergence action against VERPE in %” value (VERPE) was 90%. The “Pre-emergence action at 1280 g/ha against POAAN in %” value (POAAN) was 100% and the “herbicidal efficacy” value (harmful plants) was “good herbicidal efficacy”.
